Test results reported in patent publication US5359121A, “Glycine derivative monosodium salt tetrahydrate” (Ono Pharmaceutical Co., Ltd., priority 1991, dated 1994).

Tests used:
[1] = Experiment of hygroscopicity; assay type: physicochemical; conditions: exposure to air / 25° C., humidity of 75%
Description: The hygroscopicity of each compound was measured by the ratio of its weight to lapse of time.

CC(C)(C)C(=O)Oc1ccc(S(=O)(=O)Nc2ccccc2C(=O)NCC(=O)[O-])cc1.[Na+] [the comparison compound, N-[o-(p-pivaloyloxybenzenesulfonylamino)benzoyl]glycine monosodium salt]
hygroscopicity (result in words) ([1]; listed as the monosodium salt of the compound of the formula (II), monosodium salt): hygroscopic
hygroscopicity (result in words) ([1]; monosodium salt): increased its weight with lapse of time

CC(C)(C)C(=O)Oc1ccc(S(=O)(=O)Nc2ccccc2C(=O)NCC(=O)[O-])cc1.O.O.O.O.[Na+] [the present invention compound, N-[o-(p-pivaloyloxybenzenesulfonylamino)benzoyl]glycine monosodium salt tetrahydrate]
toxicity (Toxicity): very low
hygroscopicity (result in words) [1]: no change of its weight
